Reference: patent US20240351986A1, “UREA COMPOUND CONTAINING 2-HETEROAROMATIC RING SUBSTITUTION, PREPARATION METHOD THEREFOR AND USE THEREOF” (SHANGHAI INSTITUTE OF MATERIA MEDICA, CHINESE ACADEMY OF …, priority 2021, published 2024)
Read-outs that look alike come from different tables or passages of the source.

What was measured:
WSU-DLCL2 cells = assay: Tumor cell proliferation inhibition in vitro (CCK-8); assay type: cell-based; settings: Homo sapiens, WSUDLCL2, 72 hours
Experimental: Experimental method: WSU-DLCL2 cells in good condition were seeded in a 96-well plate at 20,000/well. The test compound was gradient diluted with PBS and then added to the wells. After incubating with the cells for 72 hours, 10 μl of CCK-8 reagent was added to each well. After further incubation, the absorbance was measured at 460 nm and the 4-parameter curve fitting of Softmax Pro software was used to calculate the proliferation inhibition IC50 of the test compound.

U2932 = assay: Tumor cell proliferation inhibition in vitro; assay type: cell-based; settings: Homo sapiens
Pfeiffer = assay: Tumor cell proliferation inhibition in vitro; assay type: cell-based; settings: for IC50: Homo sapiens, Pfeiffer, proliferation
Will2 = assay: Tumor cell proliferation inhibition in vitro; assay type: cell-based
422 = assay: Tumor cell proliferation inhibition in vitro; assay type: cell-based; settings: for IC50: proliferation
[1] = PK parameters in mice after iv and po administration (LC-MS/MS of plasma); assay type: in vivo; settings: for AUC(0-t) / half-life / AUC(0-inf) / MRT inf / Cmax / Tmax: mouse, plasma; for AUC(0-inf): read-out: AUCINF_obs; for MRT inf: read-out: MRTINF_obs; for F: oral bioavailability
Experimental: The relevant pharmacokinetic parameters were calculated to examine the oral bioavailability and pharmacokinetic properties of the compound in mice.

[2] = Identification of metabolites in mouse plasma; assay type: in vivo
[3] = target: T1, Recombinant human CDK9/cyclin T1 (Homo sapiens, UniProt P50750); assay: CDK9 enzyme inhibitory activity (ADP-Glo kinase assay); assay type: biochemical; settings: for inhibition at 0.01 µM / inhibition at 0.1 µM: CDK9 enzyme activity, average of two independent repeats; for inhibition at 0.01 µM: compound 10 nM, read-out: Inhibition rate at different concentrations (%) 10 nM; for inhibition at 0.1 µM: compound 100 nM, read-out: Inhibition rate at different concentrations (%) 100 nM; for IC50: Table 2, read-out: CDK9/CycT1 IC50
T1 construct: purchased Carna bioscience 04-110

CDK1/cyclin B = CDK1/cyclin B (Homo sapiens, UniProt P06493); assay: CDK1 enzyme activity inhibition; assay type: biochemical; settings: for inhibition at 0.01 µM: compound 10 nM, read-out: CDK1/Cyc B inhibition rate % 10 nM; for inhibition at 0.1 µM: compound 100 nM, read-out: CDK1/Cyc B inhibition rate % 100 nM
Experimental: (§1) CDK1,4,6,7 enzyme (CDK1/cyclin B, CDK4/cyclin D1, CDK6/cyclin D1, CDK7/cyclin H) activity was measured using a 5 μL enzyme system (50 mM HEPES, 10 mM MgCl2, 1 mM EGTA, 2 mM DTT and 0.0100 Tween 20, appropriate enzyme) either. A mixture of 2.5 μL of compound, 2.5 µL of substrate and ATP (final concentration of substrate 50 nM, final concentration of ATP 200 μM) was incubated at room temperature in the dark for 60 minutes. Then 5 μL EDTA stop solution diluted in 1× detection buffer (final concentration 6 mM) was added to each well, then an antibody diluted in 1× detection buffer (final concentration 2 nM) was added to incubate for 1 hour at room temperature in the dark, and then the corresponding enzyme activity inhibition rate or IC50 was calculated after measurement.

CDK4/cyclin D1 = CDK4/cyclin D1 (Homo sapiens, UniProt P11802); assay: CDK4 enzyme activity inhibition; assay type: biochemical; settings: for inhibition at 0.01 µM: compound 10 nM, read-out: CDK4/Cyc D1 inhibition rate % 10 nM; for inhibition at 0.1 µM: compound 100 nM, read-out: CDK4/Cyc D1 inhibition rate % 100 nM
Experimental: as §1

CDK6/cyclin D1 = CDK6/cyclin D1 (Homo sapiens, UniProt Q00534); assay: CDK6 enzyme activity inhibition; assay type: biochemical; settings: for inhibition at 0.01 µM: compound 10 nM, read-out: CDK6/Cyc D1 inhibition rate % 10 nM; for inhibition at 0.1 µM: compound 100 nM, read-out: CDK6/Cyc D1 inhibition rate % 100 nM
Experimental: as §1

CDK7/cyclin H = CDK7/cyclin H (Homo sapiens, UniProt P50613); assay: CDK7 enzyme activity inhibition; assay type: biochemical; settings: for inhibition at 0.01 µM: compound 10 nM, read-out: CDK7/Cyc H inhibition rate % 10 nM; for inhibition at 0.1 µM: compound 100 nM, read-out: CDK7/Cyc H inhibition rate % 100 nM
Experimental: as §1

[4] = system: phosphorylation of Pol II S2 position; assay: Western Blot, CDK9 signaling pathway in WSU-DLCL2 cells: Pol II S2 phosphorylation; assay type: cell-based; settings: 24 hours
Experimental: (§2) Western Blot was used to detect the effect of compounds on the activation of CDK9 signaling pathway in WSU-DLCL2 cells.
(§3) Experimental method: An appropriate amount of WSU-DLCL2 cells were seeded in a 6-well plate. After 24 hours of exposure to the test compound, the cells were collected by centrifugation. A corresponding amount of 1× loading buffer (50 mM Tris-HCl (pH6.8), 2% SDS, 0.1% bromophenol blue, 10% glycerol) was added, the sample was boiled at 100° C. after lysis. The same volume of sample was taken. After SDS-PAGE electrophoresis, the protein on the gel was transferred to a nitrocellulose membrane. The corresponding band was cut according to the size of the protein and blocked TBST containing 5% skimmed milk powder (20 mM Tris-HCl, 150 mM NaCl, 0.1% Tween20, adjust pH to 7.4) for 1 hour, and primary antibody was incubated overnight at 4° C. TBST was used to elute excess primary antibody for 10 minutes each time for three times, the secondary antibody was incubated at room temperature for 1 hour, and then TBST was used to elute excess secondary antibody for 10 minutes each time for three times. Finally, the strips were colored and photographed using a Bio-Rad colorimeter.

Mcl-1 = assay: Western Blot, CDK9 signaling pathway in WSU-DLCL2 cells: Mcl-1 expression; assay type: cell-based; settings: 24 hours
Experimental: as §2, §3

[5] = original form and metabolites of compound 47 in mouse plasma, iv

T1 sequence (P50750 whole entry): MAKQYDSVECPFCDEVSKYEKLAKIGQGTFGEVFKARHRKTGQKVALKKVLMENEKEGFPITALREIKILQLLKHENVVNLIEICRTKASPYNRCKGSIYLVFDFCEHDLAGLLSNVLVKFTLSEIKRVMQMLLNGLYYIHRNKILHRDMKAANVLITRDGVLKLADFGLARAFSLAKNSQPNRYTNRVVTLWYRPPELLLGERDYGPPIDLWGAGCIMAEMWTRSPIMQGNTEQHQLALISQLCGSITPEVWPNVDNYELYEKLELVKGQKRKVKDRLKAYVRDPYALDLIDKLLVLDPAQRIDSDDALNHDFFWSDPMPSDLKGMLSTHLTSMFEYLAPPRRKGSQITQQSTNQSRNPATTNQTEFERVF
T1 sequence (O60563 whole entry partner): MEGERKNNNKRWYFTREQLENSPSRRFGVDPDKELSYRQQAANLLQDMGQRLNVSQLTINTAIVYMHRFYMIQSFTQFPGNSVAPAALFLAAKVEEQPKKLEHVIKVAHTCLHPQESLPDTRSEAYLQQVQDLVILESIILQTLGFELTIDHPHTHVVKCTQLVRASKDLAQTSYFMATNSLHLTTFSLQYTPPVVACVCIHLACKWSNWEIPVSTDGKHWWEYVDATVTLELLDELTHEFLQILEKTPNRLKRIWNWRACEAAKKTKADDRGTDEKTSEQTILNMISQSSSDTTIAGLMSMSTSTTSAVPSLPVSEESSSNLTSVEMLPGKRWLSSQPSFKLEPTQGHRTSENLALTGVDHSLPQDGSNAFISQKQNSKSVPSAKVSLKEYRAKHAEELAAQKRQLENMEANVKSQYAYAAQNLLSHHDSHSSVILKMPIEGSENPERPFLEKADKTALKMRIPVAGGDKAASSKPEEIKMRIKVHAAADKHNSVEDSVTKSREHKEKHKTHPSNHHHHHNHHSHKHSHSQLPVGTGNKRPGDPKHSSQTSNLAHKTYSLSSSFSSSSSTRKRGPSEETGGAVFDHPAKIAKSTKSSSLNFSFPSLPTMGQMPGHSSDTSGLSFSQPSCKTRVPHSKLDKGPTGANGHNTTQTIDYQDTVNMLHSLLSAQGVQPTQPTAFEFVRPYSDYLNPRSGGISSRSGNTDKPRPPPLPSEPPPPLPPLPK
CDK6/cyclin D1, sequence (Q00534 whole entry, species assumed): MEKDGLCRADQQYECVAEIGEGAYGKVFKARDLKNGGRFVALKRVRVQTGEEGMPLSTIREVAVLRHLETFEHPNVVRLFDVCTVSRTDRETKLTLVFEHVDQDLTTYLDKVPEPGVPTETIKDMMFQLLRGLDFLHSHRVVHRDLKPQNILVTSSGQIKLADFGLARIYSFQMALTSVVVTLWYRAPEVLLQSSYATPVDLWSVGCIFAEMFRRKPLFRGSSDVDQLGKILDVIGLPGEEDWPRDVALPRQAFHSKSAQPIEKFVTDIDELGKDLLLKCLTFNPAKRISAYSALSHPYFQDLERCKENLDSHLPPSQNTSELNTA
CDK6/cyclin D1, sequence (P24385 whole entry partner, species assumed): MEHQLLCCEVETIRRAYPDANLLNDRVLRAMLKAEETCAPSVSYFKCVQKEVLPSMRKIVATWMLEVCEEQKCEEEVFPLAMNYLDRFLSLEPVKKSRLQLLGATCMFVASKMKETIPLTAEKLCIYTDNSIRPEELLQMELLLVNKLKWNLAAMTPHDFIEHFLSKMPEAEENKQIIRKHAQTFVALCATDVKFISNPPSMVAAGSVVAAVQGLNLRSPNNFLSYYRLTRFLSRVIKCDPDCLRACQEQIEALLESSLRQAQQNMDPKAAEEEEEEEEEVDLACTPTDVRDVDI
CDK4/cyclin D1, sequence (P11802 whole entry, species assumed): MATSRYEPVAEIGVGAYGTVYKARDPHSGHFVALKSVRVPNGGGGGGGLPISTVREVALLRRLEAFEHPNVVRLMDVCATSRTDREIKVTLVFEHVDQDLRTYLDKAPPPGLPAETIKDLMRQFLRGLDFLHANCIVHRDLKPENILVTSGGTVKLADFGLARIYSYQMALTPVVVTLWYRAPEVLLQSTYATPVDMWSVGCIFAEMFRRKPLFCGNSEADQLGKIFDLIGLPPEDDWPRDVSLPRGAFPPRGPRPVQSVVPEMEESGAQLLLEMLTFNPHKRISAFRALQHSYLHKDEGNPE
CDK4/cyclin D1, sequence (P24385 whole entry partner, species assumed): as the sequence (P24385 whole entry partner, species assumed) above
CDK7/cyclin H, sequence (P50613 whole entry, species assumed): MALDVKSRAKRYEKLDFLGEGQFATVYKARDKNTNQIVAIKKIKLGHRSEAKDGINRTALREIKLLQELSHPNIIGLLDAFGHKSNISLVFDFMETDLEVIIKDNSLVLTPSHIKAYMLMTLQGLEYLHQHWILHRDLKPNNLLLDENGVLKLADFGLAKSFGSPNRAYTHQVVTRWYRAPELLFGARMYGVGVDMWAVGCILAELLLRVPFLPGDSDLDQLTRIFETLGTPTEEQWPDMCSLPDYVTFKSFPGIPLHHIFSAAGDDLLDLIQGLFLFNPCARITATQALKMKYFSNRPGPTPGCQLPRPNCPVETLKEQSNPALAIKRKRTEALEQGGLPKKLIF
CDK7/cyclin H, sequence (P51946 whole entry partner, species assumed): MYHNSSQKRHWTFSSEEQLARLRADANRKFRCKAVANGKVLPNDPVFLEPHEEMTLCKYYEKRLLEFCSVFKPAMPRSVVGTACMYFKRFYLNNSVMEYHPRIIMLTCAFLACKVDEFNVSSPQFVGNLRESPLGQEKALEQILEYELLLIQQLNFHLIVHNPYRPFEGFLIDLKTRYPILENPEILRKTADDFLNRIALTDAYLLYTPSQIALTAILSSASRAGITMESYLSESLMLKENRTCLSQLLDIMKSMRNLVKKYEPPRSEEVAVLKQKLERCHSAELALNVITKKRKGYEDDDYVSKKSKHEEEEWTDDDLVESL
CDK1/cyclin B, sequence (P06493 whole entry, species assumed): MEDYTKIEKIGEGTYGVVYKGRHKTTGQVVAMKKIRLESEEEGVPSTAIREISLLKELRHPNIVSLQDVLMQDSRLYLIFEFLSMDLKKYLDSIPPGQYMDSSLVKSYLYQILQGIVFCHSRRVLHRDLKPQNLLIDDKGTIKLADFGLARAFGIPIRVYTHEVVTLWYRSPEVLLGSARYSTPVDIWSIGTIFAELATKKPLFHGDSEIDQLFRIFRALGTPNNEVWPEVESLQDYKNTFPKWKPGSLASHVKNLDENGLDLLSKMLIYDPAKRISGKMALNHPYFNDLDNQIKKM
CDK1/cyclin B, sequence (P14635 whole entry partner, species assumed): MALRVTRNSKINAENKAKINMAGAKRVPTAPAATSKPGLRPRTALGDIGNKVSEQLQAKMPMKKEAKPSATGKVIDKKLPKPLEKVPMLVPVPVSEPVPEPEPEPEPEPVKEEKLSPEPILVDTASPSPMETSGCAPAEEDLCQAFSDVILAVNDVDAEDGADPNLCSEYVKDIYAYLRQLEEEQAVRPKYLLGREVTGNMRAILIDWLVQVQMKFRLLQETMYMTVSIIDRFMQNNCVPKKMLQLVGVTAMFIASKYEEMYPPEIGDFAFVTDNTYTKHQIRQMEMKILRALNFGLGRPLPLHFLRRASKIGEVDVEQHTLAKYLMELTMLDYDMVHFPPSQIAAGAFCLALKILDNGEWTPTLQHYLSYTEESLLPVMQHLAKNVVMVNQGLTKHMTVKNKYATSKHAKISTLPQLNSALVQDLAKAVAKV

| SMILES | CL_obs ([1]; i.v.) | Vss_obs ([1]; i.v.) | AUC(0-t) ([1]; iv, 3 mg/kg) | half-life ([1]; iv, 3 mg/kg) | AUC(0-inf) ([1]; iv, 3 mg/kg, i.v.) | MRT inf ([1]; iv, 3 mg/kg, i.v.) | AUC(0-t) ([1]; po) | Cmax ([1]; po) | Tmax ([1]; po) | inhibition at 0.01 µM [3] | inhibition at 0.1 µM [3] | IC50 [3] | inhibition at 0.01 µM (CDK1/cyclin B) | inhibition at 0.1 µM (CDK1/cyclin B) | inhibition at 0.01 µM (CDK4/cyclin D1) | inhibition at 0.1 µM (CDK4/cyclin D1) | inhibition at 0.01 µM (CDK6/cyclin D1) | inhibition at 0.1 µM (CDK6/cyclin D1) | inhibition at 0.01 µM (CDK7/cyclin H) | inhibition at 0.1 µM (CDK7/cyclin H) | also measured |
| --- | --- | --- | --- | --- | --- | --- | --- | --- | --- | --- | --- | --- | --- | --- | --- | --- | --- | --- | --- | --- | --- |
| CC(=O)N[C@@H]1CCC[C@H](C(=O)Nc2cc(-c3cnn4c3CC(C)(C)C4)c(Cl)cn2)C1 [AZD4573, reference compound] | 119 mL/min/kg | 0.82 L/kg | 416 ng·h/mL | 0.11 h | 419 ng·h/mL | 0.11 h | 73.2 ng·h/mL | 219 ng/mL | 0.25 h | – | – | – | – | – | – | – | – | – | – | – | IC50 (WSU-DLCL2 cells): < 3 nM; IC50 (U2932): 2.32 nM; IC50 (Pfeiffer): 2.43 nM; IC50 (Will2): 5.75 nM; IC50 422: 1.81 nM; half-life ([1]; po, 10 mg/kg): 0.27 h; AUC(0-inf) ([1]; po): 73.6 ng·h/mL; MRT inf ([1]; po): 0.42 h; F [1]: 5.28% |
| CC(=O)N[C@H]1CC[C@H](NC(=O)Nc2cc(-c3cnn4c3CC(C)(C)C4)c(Cl)cn2)CC1 [Example M0] | – | – | – | – | – | – | – | – | – | – | – | – | – | – | – | – | – | – | – | – | Area (254 nm), value in parentheses, iv [2, 5]: (532); MS Area iv [2, 5]: 62967; MS Area po ([2]; original form and metabolites of compound 47 in mouse plasma, po): 811 |
| CC(=O)N[C@H]1CC[C@@H](NC(=O)Nc2cc(-c3cnn4c3CC(C)(C)C4)c(Cl)cn2)CC1 [Example 67, N-((1s,4s)-4-(3-(5-chloro-4-(5,5-dimethyl-5,6-dihydro-4H-pyrrolo[1,2-b]pyrazol-3-yl)pyridin-2-yl)ureido)cyclohexyl)acetamide] | – | – | – | – | – | – | – | – | – | 68% | 85% | 5.3 nM | 4.7% | 47.4% | 9.5% | 18% | 4% | 19.1% | -4% | 44% | – |
| COCCN[C@H]1CC[C@H](NC(=O)Nc2cc(-c3cnn4c3CC(C)(C)C4)c(Cl)cn2)CC1 [Example 46, 1-(5-chloro-4-(5,5-dimethyl-5,6-dihydro-4H-pyrrolo[1,2-b]pyrazol-3-yl)pyridin-2-yl)-3-((1r,4r)-4-((2-methoxy)amino)cyclohexyl)urea] | 68.6 mL/min/kg | 3.469 L/kg | 728 ng·h/mL | 2.09 h | 729 ng·h/mL | 0.84 h | 601 ng·h/mL | 382 ng/mL | 1 h | 55% | 94% | 12 nM | -5.1% | 11.6% | 11.1% | 20.9% | 6.2% | 21.6% | 24% | 59% | plasma clearance rates compared with AZD4573 [1]: lower; half-life ([1]; po, 10 mg/kg): 2.38 h; AUC(0-inf) ([1]; po): 602 ng·h/mL; MRT inf ([1]; po): 1.7 h; F [1]: 24.8% |
| COc1cc(F)ccc1-c1ccnc(NC(=O)N[C@H]2CC[C@H](N)CC2)c1 [Example 2, 1-((1r,4r)-4-aminocyclohexyl)-3-(4-(4-fluoro-2-methoxyphenyl)pyridin-2-yl)urea] | – | – | – | – | – | – | – | – | – | 57% | 88% | 5.7 nM | 1.3% | 7.8% | -7% | 1.8% | 2.6% | 13.8% | -6.6% | -3.8% | – |
| COCCN[C@H]1CC[C@H](NC(=O)Nc2cc(-c3ccc(F)cc3OC)ccn2)CC1 [Example 3, 1-(4-(4-fluoro-2-methoxyphenyl)pyridin-2-yl)-3-((1r,4r)-4-((2-methoxyethyl)amino)cyclohexyl) urea] | – | – | – | – | – | – | – | – | – | 50.2% | 96.7% | 6.2 nM | -1.9% | -1.4% | 7.2% | 25.1% | 9.9% | 18.9% | -24.5% | -2.6% | – |
| CC(=O)N[C@H]1CC[C@H](NC(=O)Nc2cc(-c3cnn4c3CC(C)(C)C4)c(Cl)cn2)CC1 [Example 47, N-((1r,4r)-4-(3-(5-chloro-4-(5,5-dimethyl-5,6-dihydro-4H-pyrrolo[1,2-b]pyrazol-3-yl)pyridin-2-yl)ureido)cyclohexyl)acetamide] | 102 mL/min/kg | 14.318 L/kg | 480 ng·h/mL | 3.84 h | 491 ng·h/mL | 2.34 h | 98.8 ng·h/mL | 58.2 ng/mL | 0.5 h | 71% | 84% | 5.1 nM | 5% | 33.4% | 13.6% | 41.1% | 4.6% | 26.7% | 15% | 50% | IC50 (WSU-DLCL2 cells): < 4.5 nM; IC50 (U2932): 0.932 nM; IC50 (Pfeiffer): 0.052 nM; growth inhibition potency relative to positive control compound AZD4573 (Pfeiffer; Pfeiffer cells, IC50 ratio): 46.67 times; IC50 (Will2): 2.16 nM; growth inhibition potency relative to positive control compound AZD4573 (422; 422 cells, IC50 ratio): 20.33 times; IC50 422: 0.089 nM; phosphorylation of Pol II S2 position ([4]; 50 nM, vs control group): significantly down-regulated; phosphorylation of Pol II S2 position ([4]; 100 nM): basically completely inhibited; Mcl-1 expression (Mcl-1; 50 nM): significant decrease; Mcl-1 expression (Mcl-1; 100 nM): almost completely blocked; plasma clearance rates compared with AZD4573 [1]: lower; half-life ([1]; po, 10 mg/kg): 1.5 h; AUC(0-inf) ([1]; po): 100 ng·h/mL; MRT inf ([1]; po): 1.57 h; F [1]: 6.18%; plasma stability compared with positive compound AZD4573 ([2]; mouse plasma, from metabolite identification): higher plasma stability |
| COc1cc(F)ccc1-c1cc(NC(=O)NC2CCC(NC(C)=O)CC2)ncc1Cl (centres unmarked) [Example 22, N-((1r,4r)-4-(3-(5-chloro-4-(4-fluoro-2-methoxyphenyl)pyridin-2-yl)ureido)cyclohexyl)acetamide] | – | – | – | – | – | – | – | – | – | 62.9% | 93.5% | – | – | – | – | – | – | – | – | – | – |
| COc1cc(F)ccc1-c1cc(NC(=O)NC2CCC(NCCN(C)C)CC2)ncc1Cl (centres unmarked) [Example 27, 1-(5-chloro-4-(4-fluoro-2-methoxyphenyl)pyridin-2-yl)-3-((1r,4r)-4-((2-(dimethylamino)ethyl)amino)cyclohexyl)urea] | – | – | – | – | – | – | – | – | – | 44.2% | 78.4% | – | – | – | – | – | – | – | – | – | – |
| COc1cc(F)ccc1-c1cc(NC(=O)NC2CCC(NC(C)C)CC2)ncc1Cl (centres unmarked) [Example 23, 1-(5-chloro-4-(4-fluoro-2-methoxyphenyl)pyridin-2-yl)-3-((1r,4r)-4-(isopropylamino)cyclohexyl)urea] | – | – | – | – | – | – | – | – | – | 37.2% | 87.4% | – | – | – | – | – | – | – | – | – | – |
